Results taken from patent publication US6498164B1, “Barbituric acid derivative and preventive and therapeutic agent for bone and cartilage containing the same” (Aventis Pharma S.A., priority 1998, dated 2002).

Test system: osteocytes containing osteoclasts
Assay: Pit formation assay (bone resorption inhibition on ivory slices)
Format: cell-based, ICR mice
Conditions: compound 1 × 10^−5 M, ivory piece, 3 days culture; for inhibition at 10 µM: Mus musculus, Osteoclast, 72 h, 0% = no compound with rPTH 1×10^−8 M, 100% = no resorption cavity, read-out: Inhibiting rate; for Number of resorption cavity (mean ± SD): rPTH 1×10^−8 M
Description: ICR mice 11-12 days old (Charles River) were subjected to euthanasia through ether anesthesia, and disinfected by dipping in 70% ethanol immediately. Subsequently, a femur and a shank of a mouse was removed, chopped in an -MEM culture medium (Flow Labs Corp.) containing 5% FBS (Irving Scientific Corp.), 100 U/mL penicillin, and 100 µg/mL streptomycin. Supernatant obtained by pipetting was collected, washed with culture medium solution, suspended in a solution containing 5% FBS and -MEM culture medium to yield osteocytes containing osteoclasts. Supernatant of osteocyte suspending solution was taken 3 minutes after standing still to pass through meshes (Cell Strainer, 70 m, Falcon Corp.). The filtrate was adjusted to the concentration of 1 107 cells/mL to use for pit formation assay.
(2) Test by the pit formation assay
An ivory piece was cut into slices in 150 m thickness by using a precision, low speed cutter (Buehler Corp.) and punched to make a cylinderial holes in 6 mm diameter. The ivory piece was dipped in 70% ethanol, treated by sonication for 5 minutes twice, and washed with sterilized PBS three times and with culture medium twice. The ivory piece was put in pits of a 96-pit culture plate (Falcon Corp.), 100 μl of culture medium, that contains a chemical compound of the present invention adjusted to a concentration of 2×10^−5 M, was poured into each pit, and 100 μL of culture medium, that contains 1×10^7 osteocytes/mL previously prepared, into each pit (the final concentration of the compound was 1×10^−5 M), and finally cultivation was carried out in an incubator under 37° C. and 10% CO2 for 3 days. Then cells on an ivory piece were removed in 2 M sodium hydroxide solution, washed with water and methanol to stain resorption cavity with Coomassie Brilliant Blue and count numbers of absorbed cavities under a microscope. The inhibition rate of bone resorption was calculated on the basis that resorption cavity was assumed 0% in the case of no addition of the compound under the presence of rPTH (1×10^−8 M) in the solution and the case of no resorption cavity was assumed 100%. A good result was yielded in the same experiment with variation of resorption cavity numbers among experimental groups due to a difference among proportions of various cell in the solution, in which osteocytes were suspended, and also among the lot numbers of used animals.

Row | Compound | inhibition at 10 µM | Number of resorption cavity (mean ± SD)
1 | CC(C)CCN1C(=O)C(C(=O)CC(C)C)C(=O)N(CCC(C)C)C1=O [Compound No. 4, 1,3-Bis(3-methylbutyl)-5-(3-methyl-1-oxobutyl)barbituric Acid] | 90.6% | 21.1 ± 4.3
2 | O=C(Cc1ccccc1)C1C(=O)N(Cc2ccccc2)C(=O)N(Cc2ccccc2)C1=O [Compound No. 2, 1,3-Dibenzyl-5-(phenylacetyl)barbituric Acid] | 99% | 2.2 ± 0.6
3 | CC(C)CC(=O)C1C(=O)N(Cc2ccccc2)C(=O)N(Cc2ccccc2)C1=O [Compound No. 1, 1,3-Dibenzyl-5-(3-methyl-1-oxobutyl)barbituric Acid] | 99.2% | 1.0 ± 0.5
4 | O=C(Cc1cccs1)C1C(=O)N(Cc2ccccc2)C(=O)N(Cc2ccccc2)C1=O [Compound No. 3, 1,3-Dibenzyl-5-(2-thienylacetyl)barbituric Acid] | 96.7% | 7.0 ± 1.7
